# Measurements as given in article PMC7468467, “Characterization of a Novel Chromosomal Class C β-Lactamase, YOC-1, and Comparative Genomics Analysis of a Multidrug Resistance Plasmid in Yokenella regensburgei W13” (Frontiers in Microbiology, 2020).
# Molecular target: T1, YOC-1 (Yokenella regensburgei, UniProt A0AB38FXT7)
# T1 construct: gene C7387_3136; signal peptide (residues 1-22) removed; pCold I in E. coli BL21, N-terminal His tag removed by enterokinase
# Experiment: nitrocefin hydrolysis inhibition, spectrophotometric
# Assay type: biochemical
# Settings: 100 μM nitrocefin; 5 min preincubation; 37°C
# T1 sequence (A0AB38FXT7 entry or part of it): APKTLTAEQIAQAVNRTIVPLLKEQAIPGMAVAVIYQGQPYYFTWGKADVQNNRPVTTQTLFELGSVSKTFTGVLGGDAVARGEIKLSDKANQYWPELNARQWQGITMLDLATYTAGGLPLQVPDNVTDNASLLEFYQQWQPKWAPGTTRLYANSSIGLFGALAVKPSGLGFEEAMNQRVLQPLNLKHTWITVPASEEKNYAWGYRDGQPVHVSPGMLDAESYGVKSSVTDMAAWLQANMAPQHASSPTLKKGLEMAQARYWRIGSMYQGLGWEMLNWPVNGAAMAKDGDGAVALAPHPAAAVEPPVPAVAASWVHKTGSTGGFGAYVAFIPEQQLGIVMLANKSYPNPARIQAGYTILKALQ
row,Compound,IC50
1,O=C(O)[C@H]1/C(=C/CO)O[C@@H]2CC(=O)N21 [clavulanic acid],57.33 ± 0.03 µM
2,NC(=O)[C@@H]1CC[C@@H]2CN1C(=O)N2OS(=O)(=O)O [avibactam],0.00117 ± 0.0002 µM
3,Nc1nc2c(ncn2[C@@H]2O[C@H](COP(=O)(O)O)[C@@H](O)[C@H]2O)c(=O)[nH]1 [GMP],81.73 ± 0.02 µM
